What was measured:
[1] = PREVLAR trial: adverse events; assay type: in vivo, human
Description: Of potential significance for OM, decreased rates of several pathognomonic toxicities were seen (see Table 4).
• CTCAEv.4 are a set of criteria for the standardized classification of AEs of drugs used in cancer therapy.

[2] = cited from earlier work
[3] = Repeated-dose toxicity study in dogs; assay type: in vivo
Method: Repeated-dose toxicity studies of RRx-001 (3 times/week up to 4 weeks in duration) were conducted in rats at dose levels of 12 mg/kg, 20.1 mg/kg, and 30 mg/kg per day and in dogs at dose levels of 4 mg/kg, 8 mg/kg, and 12 mg/kg per day (due to clinical signs, the 8 mg/kg and 12 mg/kg doses were reduced to 3 mg/kg and 5 mg/kg on Day 4). The no observed adverse effect level was <12 mg/kg in rats and 5 mg/kg in dogs.

[4] = Arm 1: RRx-001 Pre-treatment + SOC Chemoradiation (N = 12)
[5] = Arm 1: RRx-001 pretreatment + SOC chemoradiation
[6] = Arm 2: RRx-001 Pre-treatment + 2 Concurrent Doses + SOC Chemoradiation (N = 11)
[7] = Arm 2: RRx-001 pretreatment + 2 concurrent doses + SOC chemoradiation
[8] = Arm 3: RRx-001 Pre-treatment + 6 Concurrent Doses + SOC Chemoradiation (N = 13)
[9] = Arm 3: RRx-001 pretreatment + 6 concurrent doses + SOC chemoradiation

O=C(CBr)N1CC([N+](=O)[O-])([N+](=O)[O-])C1 [RRx-001, 2-bromo-1-(3,3-dinitroazetidin-1-yl) ethan-1-one]
Related anemia ([1]; Arm 1): 0% | neutrophil count decrease ([1]; Arm 1): 0% | related oral dysesthesia ([1]; Arm 1): 0% | related vomiting ([1]; Arm 1): 1% | radiation-induced skin injury ([1]; Arm 1, p=0.0007 vs control): none | Oral pain ([1]; Arm 1, p=0.0095 vs control): 0% | related constipation ([1]; Arm 1, p=0.0095 vs control): 0% | reported adverse events (CTCAEv.4): Anemia [1, 4]: 0 (0) | reported adverse events (CTCAEv.4): Blood creatinine increased [1, 4]: 0 (0) | reported adverse events (CTCAEv.4): Blood urea increased [1, 4]: 0 (0) | reported adverse events (CTCAEv.4): Candida infection [1, 4]: 0 (0) | reported adverse events (CTCAEv.4): Constipation [1, 4]: 0 (0) | reported adverse events (CTCAEv.4): Decreased appetite [1, 4]: 0 (0) | reported adverse events (CTCAEv.4): Dermatitis [1, 4]: 0 (0) | reported adverse events (CTCAEv.4): Dry mouth [1, 4]: 0 (0) | reported adverse events (CTCAEv.4): Dysgeusia [1, 4]: 0 (0) | reported adverse events (CTCAEv.4): Dysphagia [1, 4]: 0 (0) | reported adverse events (CTCAEv.4): Glossodynia [1, 4]: 0 (0) | reported adverse events (CTCAEv.4): Laryngeal inflammation [1, 4]: 0 (0) | reported adverse events (CTCAEv.4): Neutrophil count decreased [1, 4]: 0 (0) | reported adverse events (CTCAEv.4): Oral candidiasis [1, 4]: 1 (8.3) | reported adverse events (CTCAEv.4): Oral dysaesthesia [1, 4]: 0 (0) | reported adverse events (CTCAEv.4): Oral dysesthesia [1, 4]: 0 (0) | reported adverse events (CTCAEv.4): Oral pain [1, 4]: 0 (0) | reported adverse events (CTCAEv.4): Platelet count decreased [1, 4]: 0 (0) | reported adverse events (CTCAEv.4): Radiation skin injury [1, 4]: 0 (0) | reported adverse events (CTCAEv.4): Salivary duct inflammation [1, 4]: 0 (0) | reported adverse events (CTCAEv.4): Vomiting [1, 4]: 1 (8.3) | reported adverse events (CTCAEv.4): Weight decreased [1, 4]: 0 (0) | reported adverse events (CTCAEv.4): White blood cell count decreased [1, 4]: 0 (0) | SAE frequency: Anemia [1, 5]: 8.3% | SAE frequency: Atrial flutter [1, 5]: 8.3% | SAE frequency: Decreased appetite [1, 5]: 8.3% | SAE frequency: Dysgeusia [1, 5]: 8.3% | SAE frequency: Febrile neutropenia [1, 5]: 8.3% | SAE frequency: Hypertension [1, 5]: 8.3% | SAE frequency: Hypoacusis [1, 5]: 8.3% | SAE frequency: Hypokalemia [1, 5]: 8.3% | SAE frequency: Lymphocyte count decreased [1, 5]: 33.3% | SAE frequency: Nausea [1, 5]: 8.3% | SAE frequency: Neutrophil count decreased [1, 5]: 8.3% | SAE frequency: Oropharyngeal pain [1, 5]: 16.7% | SAE frequency: Respiratory tract infection [1, 5]: 8.3% | SAE frequency: Vomiting [1, 5]: 8.3% | SAE frequency: Weight decreased [1, 5]: 8.3% | SAE frequency: White blood cell count decreased [1, 5]: 16.7% | Oral pain ([1]; Arm 2): 9.1% | Related anemia ([1]; Arm 2): 0% | neutrophil count decrease ([1]; Arm 2): 0% | radiation-induced skin injury ([1]; Arm 2): 18.2% | related constipation ([1]; Arm 2): 0% | related oral dysesthesia ([1]; Arm 2): 0% | related vomiting ([1]; Arm 2): 1% | reported adverse events (CTCAEv.4): Anemia [1, 6]: 0 (0) | reported adverse events (CTCAEv.4): Blood creatinine increased [1, 6]: 2 (18.2) | reported adverse events (CTCAEv.4): Blood urea increased [1, 6]: 0 (0) | reported adverse events (CTCAEv.4): Candida infection [1, 6]: 1 (9.1) | reported adverse events (CTCAEv.4): Constipation [1, 6]: 0 (0) | reported adverse events (CTCAEv.4): Decreased appetite [1, 6]: 0 (0) | reported adverse events (CTCAEv.4): Dermatitis [1, 6]: 0 (0) | reported adverse events (CTCAEv.4): Dry mouth [1, 6]: 0 (0) | reported adverse events (CTCAEv.4): Dysgeusia [1, 6]: 0 (0) | reported adverse events (CTCAEv.4): Dysphagia [1, 6]: 0 (0) | reported adverse events (CTCAEv.4): Glossodynia [1, 6]: 0 (0) | reported adverse events (CTCAEv.4): Laryngeal inflammation [1, 6]: 0 (0) | reported adverse events (CTCAEv.4): Neutrophil count decreased [1, 6]: 0 (0) | reported adverse events (CTCAEv.4): Oral candidiasis [1, 6]: 0 (0) | reported adverse events (CTCAEv.4): Oral dysaesthesia [1, 6]: 0 (0) | reported adverse events (CTCAEv.4): Oral dysesthesia [1, 6]: 0 (0) | reported adverse events (CTCAEv.4): Oral pain [1, 6]: 1 (9.1) | reported adverse events (CTCAEv.4): Platelet count decreased [1, 6]: 0 (0) | reported adverse events (CTCAEv.4): Radiation skin injury [1, 6]: 2 (18.2) | reported adverse events (CTCAEv.4): Salivary duct inflammation [1, 6]: 0 (0) | reported adverse events (CTCAEv.4): Vomiting [1, 6]: 1 (9.1) | reported adverse events (CTCAEv.4): Weight decreased [1, 6]: 0 (0) | reported adverse events (CTCAEv.4): White blood cell count decreased [1, 6]: 0 (0) | SAE frequency: Acute kidney injury [1, 7]: 18.2% | SAE frequency: Alanine aminotransferase increased [1, 7]: 9.1% | SAE frequency: Anemia [1, 7]: 9.1% | SAE frequency: Blood creatinine increased [1, 7]: 9.1% | SAE frequency: Candida infection [1, 7]: 9.1% | SAE frequency: Colitis [1, 7]: 9.1% | SAE frequency: Deafness [1, 7]: 9.1% | SAE frequency: Decreased appetite [1, 7]: 9.1% | SAE frequency: Device related thrombosis [1, 7]: 9.1% | SAE frequency: Dysphagia [1, 7]: 9.1% | SAE frequency: Flank pain [1, 7]: 9.1% | SAE frequency: Hypokalemia [1, 7]: 9.1% | SAE frequency: Hypophosphatasemia [1, 7]: 9.1% | SAE frequency: Laryngeal inflammation [1, 7]: 9.1% | SAE frequency: Leukocytosis [1, 7]: 9.1% | SAE frequency: Lymphocyte count decreased [1, 7]: 72.7% | SAE frequency: Nausea [1, 7]: 9.1% | SAE frequency: Neutrophil count decreased [1, 7]: 27.3% | SAE frequency: Oral pain [1, 7]: 9.1% | SAE frequency: Oropharyngeal pain [1, 7]: 9.1% | SAE frequency: Stomatitis [1, 7]: 9.1% | SAE frequency: Sudden death [1, 7]: 9.1% | SAE frequency: White blood cell count decreased [1, 7]: 36.4% | reported adverse events (CTCAEv.4): Anemia [1, 8]: 4 (30.8) | reported adverse events (CTCAEv.4): Blood creatinine increased [1, 8]: 0 (0) | reported adverse events (CTCAEv.4): Blood urea increased [1, 8]: 0 (0) | reported adverse events (CTCAEv.4): Candida infection [1, 8]: 3 (23.1) | reported adverse events (CTCAEv.4): Constipation [1, 8]: 0 (0) | reported adverse events (CTCAEv.4): Decreased appetite [1, 8]: 4 (30.8) | reported adverse events (CTCAEv.4): Dermatitis [1, 8]: 0 (0) | reported adverse events (CTCAEv.4): Dry mouth [1, 8]: 4 (30.8) | reported adverse events (CTCAEv.4): Dysgeusia [1, 8]: 7 (53.8) | reported adverse events (CTCAEv.4): Dysphagia [1, 8]: 2 (15.4) | reported adverse events (CTCAEv.4): Glossodynia [1, 8]: 0 (0) | reported adverse events (CTCAEv.4): Laryngeal inflammation [1, 8]: 0 (0) | reported adverse events (CTCAEv.4): Neutrophil count decreased [1, 8]: 1 (7.7) | reported adverse events (CTCAEv.4): Oral candidiasis [1, 8]: 1 (7.7) | reported adverse events (CTCAEv.4): Oral dysaesthesia [1, 8]: 0 (0) | reported adverse events (CTCAEv.4): Oral dysesthesia [1, 8]: 0 (0) | reported adverse events (CTCAEv.4): Oral pain [1, 8]: 4 (30.8) | reported adverse events (CTCAEv.4): Platelet count decreased [1, 8]: 3 (23.1) | reported adverse events (CTCAEv.4): Radiation skin injury [1, 8]: 4 (30.8) | reported adverse events (CTCAEv.4): Salivary duct inflammation [1, 8]: 1 (7.7) | reported adverse events (CTCAEv.4): Vomiting [1, 8]: 3 (23.1) | reported adverse events (CTCAEv.4): Weight decreased [1, 8]: 2 (15.4) | reported adverse events (CTCAEv.4): White blood cell count decreased [1, 8]: 1 (7.7) | SAE frequency: Complication associated with device [1, 9]: 7.7% | SAE frequency: Decreased appetite [1, 9]: 15.4% | SAE frequency: Dry Mouth [1, 9]: 7.7% | SAE frequency: Dysphagia [1, 9]: 30.8% | SAE frequency: Embolism [1, 9]: 7.7% | SAE frequency: Gastric Perforation [1, 9]: 7.7% | SAE frequency: Gastrointestinal tube insertion [1, 9]: 15.4% | SAE frequency: Hypocalcemia [1, 9]: 7.7% | SAE frequency: Hypokalemia [1, 9]: 7.7% | SAE frequency: Hypophosphatasemia [1, 9]: 7.7% | SAE frequency: Hypotension [1, 9]: 7.7% | SAE frequency: Lung infection [1, 9]: 7.7% | SAE frequency: Lymphocyte count decreased [1, 9]: 53.8% | SAE frequency: Nausea [1, 9]: 7.7% | SAE frequency: Neutrophil count decreased [1, 9]: 30.8% | SAE frequency: Oral dysaesthesia [1, 9]: 7.7% | SAE frequency: Oral dysesthesia [1, 9]: 7.7% | SAE frequency: Oral pain [1, 9]: 7.7% | SAE frequency: Oropharyngeal pain [1, 9]: 7.7% | SAE frequency: Salivary duct inflammation [1, 9]: 7.7% | SAE frequency: Stomatitis [1, 9]: 7.7% | SAE frequency: Swelling face [1, 9]: 7.7% | SAE frequency: Tumor pain [1, 9]: 7.7% | SAE frequency: Vomiting [1, 9]: 7.7% | SAE frequency: Weight decreased [1, 9]: 7.7% | SAE frequency: White blood cell count decreased [1, 9]: 30.8% | incidence of salivary duct inflammation ([1]; Arms 1 and 2, vs control 30%, N.S.): none | incidence of dry mouth ([1]; Arms 1 and 2, vs control 60%, p=0.0028): none | incidence of dysphagia ([1]; Arms 1 and 2, vs control 70%, p=0.0007): none | SAEs attributed to RRx-001 ([1]; PREVLAR): none were attributed to RRx-001 | toxicity attributed to RRx-001 ([1]; PREVLAR): discomfort during infusion | weight loss ([1]; RRx-001-treated patients vs control 50%, p=0.0095): none | impact on marrow-related AEs (anemia, neutropenia), renal function or the incidence of candidiasis ([1]; RRx-001 treatment vs control): did not statistically impact | character of toxicity attributable specifically to RRx-001 ([1]; infusion): localized, mild, and transient | dose-limiting toxicities and drug-drug interactions ([2]; N. Jayabalan et al. 2023): no dose-limiting toxicities and no drug-drug interactions have been observed | safety and tolerability in humans ([2]; studies from multiple independent groups): safe and well-tolerated | tolerability in prior safety assessments in humans ([2]; with and without concurrent radiation therapy, T. Reid et al. 2015): well-tolerated without significant toxicity | no observed adverse effect level ([3]; 3 times/week up to 4 weeks): 5 mg/kg | organ effects ([3]; repeated dose): Effects on lungs were observed
